Data published in US9962369B2, “Methods and compositions for transdermal delivery” (SPRAYABLE HOLDINGS, INC., priority 2014, dated 2018).

Test system: human skin tissue
Test: Penetration rate of AI compound in AI-helper composition through human skin in vitro, modified Franz cells
Type: in vitro ADME
Details: 25 °C; for Skin penetration rate of Al compound: Al compound 0.5% w/v
Method: Penetration rate of AI compound in the AI-helper composition through human skin were measured in vitro by modified Franz cells. A Franz cell had two chambers: the top sample chamber and the bottom receiving chamber. The human skin tissue (450-500 μm thick) that separated the top and the receiving chambers was isolated from the anterior or posterior thigh areas.

[1] = 2-(Diethylamino)ethyl 2-(4-isobutylphenyl)propionate hydrochloride 6% w/v, water
[2] = D-Phenylalanine isopropyl ester hydrochloride 6% w/v, water
[3] = Dialkylaminoalkyl 2-(4-isobutylphenyl)propionate: None
[4] = L-Phenylalanine isopropyl ester hydrochloride 6% w/v, water
[5] = no isoleucine ester (None), AI compound 0.5 % w/v in water
[6] = no leucine ester (None), AI compound 0.5 % w/v in water
[7] = no tryptophan ester (None), AI compound 0.5 % w/v in water
[8] = with D-isoleucine isopropyl ester hydrochloride 6 % w/v in water, AI compound 0.5 % w/v
[9] = with D-leucine isopropyl ester hydrochloride 6 % w/v in water, AI compound 0.5 % w/v
[10] = with D-tryptophan isopropyl ester hydrochloride 6 % w/v in water, AI compound 0.5 % w/v
[11] = with L-isoleucine isopropyl ester hydrochloride 6 % w/v in water, AI compound 0.5 % w/v
[12] = with L-leucine isopropyl ester hydrochloride 6 % w/v in water, AI compound 0.5 % w/v
[13] = with L-tryptophan isopropyl ester hydrochloride 6 % w/v in water, AI compound 0.5 % w/v

Molecule	Skin penetration rate of Al compound [1]	Skin penetration rate of Al compound [2]	Skin penetration rate of Al compound [3]	Skin penetration rate of Al compound [4]	Skin penetration rate of Al compound (Phenylalanine ester: None)	Skin penetration rate of AI compound [5]	Skin penetration rate of AI compound [6]	Skin penetration rate of AI compound [7]	Skin penetration rate of AI compound [8]	Skin penetration rate of AI compound [9]	Skin penetration rate of AI compound [10]	Skin penetration rate of AI compound [11]	Skin penetration rate of AI compound [12]	Skin penetration rate of AI compound [13]
CC1=C(/C=C/C(C)=C/C=C/C(C)=C/C=C/C=C(C)/C=C/C=C(C)/C=C/C2=C(C)CCCC2(C)C)C(C)(C)CCC1 [Beta Carotene]	10.138 ± 2.381 μg/cm^2/h	10.658 ± 2.003 μg/cm^2/h	0.015 ± 0.011 μg/cm^2/h	10.772 ± 2.174 μg/cm^2/h	0.019 ± 0.008 μg/cm^2/h	0.015 ± 0.007 μg/cm^2/h	0.012 ± 0.011 μg/cm^2/h	0.009 ± 0.013 μg/cm^2/h	9.471 ± 2.323 μg/cm^2/h	9.501 ± 2.763 μg/cm^2/h	11.598 ± 2.173 μg/cm^2/h	9.412 ± 2.781 μg/cm^2/h	9.252 ± 2.321 μg/cm^2/h	11.372 ± 2.326 μg/cm^2/h
Vitamin A	18.347 ± 3.132 μg/cm^2/h	20.015 ± 3.025 μg/cm^2/h	0.021 ± 0.011 μg/cm^2/h	20.177 ± 3.241 μg/cm^2/h	0.026 ± 0.015 μg/cm^2/h	0.015 ± 0.008 μg/cm^2/h	0.015 ± 0.011 μg/cm^2/h	0.018 ± 0.012 μg/cm^2/h	16.515 ± 3.212 μg/cm^2/h	16.315 ± 3.172 μg/cm^2/h	21.715 ± 3.685 μg/cm^2/h	16.656 ± 3.021 μg/cm^2/h	16.357 ± 3.121 μg/cm^2/h	20.977 ± 3.741 μg/cm^2/h
CC1=C(/C=C/C(C)=C/C=C/C(C)=C/C=C/C=C(C)/C=C/C=C(C)/C=C/C2=C(C)C(=O)[C@@H](O)CC2(C)C)C(C)(C)C[C@H](O)C1=O [Astaxanthin]	12.331 ± 2.182 μg/cm^2/h	12.431 ± 2.178 μg/cm^2/h	0.019 ± 0.010 μg/cm^2/h	12.341 ± 2.042 μg/cm^2/h	0.019 ± 0.011 μg/cm^2/h	0.013 ± 0.009 μg/cm^2/h	0.010 ± 0.008 μg/cm^2/h	0.012 ± 0.013 μg/cm^2/h	11.354 ± 2.452 μg/cm^2/h	11.134 ± 2.183 μg/cm^2/h	–	11.431 ± 2.312 μg/cm^2/h	11.251 ± 2.112 μg/cm^2/h	–
